In publication PMC10619693, “Structural identification of catalytic His158 of PtMAC2p from Pseudozyma tsukubaensis, an acyltransferase involved in mannosylerythritol lipids formation” (Frontiers in Bioengineering and Biotechnology, 2023):

Biological target: T1, PtMAC2p (Pseudozyma tsukubaensis, UniProt A0A2Z6ERP5)
T1 construct: gene PtMAC2
Test: DTNB (Ellman) assay of CoA release, absorbance at […] nm
Format: biochemical
Settings: 0.1 mM lauroyl-CoA; co-substrate 1 mM mono-acylated MEL-D; 1 mM DTNB; 50 mM sodium phosphate pH 7.2, 25 °C

T1 sequence (A0A2Z6ERP5 1-549): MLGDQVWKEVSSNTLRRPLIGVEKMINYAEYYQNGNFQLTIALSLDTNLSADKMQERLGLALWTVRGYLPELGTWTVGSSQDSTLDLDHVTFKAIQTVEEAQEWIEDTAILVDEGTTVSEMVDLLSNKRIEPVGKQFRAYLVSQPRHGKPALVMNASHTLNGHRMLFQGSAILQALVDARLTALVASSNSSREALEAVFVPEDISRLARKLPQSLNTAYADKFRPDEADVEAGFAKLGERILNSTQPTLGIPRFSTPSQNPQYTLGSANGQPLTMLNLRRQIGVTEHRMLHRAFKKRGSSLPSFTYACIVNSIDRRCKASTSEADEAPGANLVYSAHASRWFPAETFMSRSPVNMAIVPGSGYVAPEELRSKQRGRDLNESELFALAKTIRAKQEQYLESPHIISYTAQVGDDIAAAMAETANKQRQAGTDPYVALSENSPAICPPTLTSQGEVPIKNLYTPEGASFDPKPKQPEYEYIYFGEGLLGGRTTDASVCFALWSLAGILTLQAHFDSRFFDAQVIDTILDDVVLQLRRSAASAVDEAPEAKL

Question: `CCCCCCCCCCCC(=O)SCCNC(=O)CCNC(=O)[C@H](O)C(C)(C)COP(=O)(O)OP(=O)(O)OC[C@H]1O[C@@H](n2cnc3c(N)ncnc32)[C@H](O)[C@@H]1OP(=O)(O)O` [lauroyl-CoA] was tested. Which “DTNB (Ellman) assay of CoA release, absorbance at 412 nm” value did it give?
Answer: Purified PtMAC2p catalyzes the transfer of a fatty acid of lauroyl-CoA (C12)
